Results reported in ChEMBL document CHEMBL5154740, “Novel Aurora A and Protein Kinase C (α, β1, β2, and θ) Multitarget Inhibitors: Impact of Selenium Atoms on the Potency and Selectivity” (J Med Chem, 2022).

How the values were obtained:
[1] = target: Aurora kinase B (Homo sapiens) (UniProt Q96GD4); experiment: Inhibition of AURB (unknown origin) at 50 nM by Z'LYTE screening method relative to control
[2] = target: Vascular endothelial growth factor receptor 1 (Homo sapiens) (UniProt P17948); experiment: Inhibition of FLT1/VEGFR1(unknown origin) at 50 nM by Z'LYTE screening method relative to control
Sequence of Vascular endothelial growth factor receptor 1 (Homo sapiens) (P17948 whole entry): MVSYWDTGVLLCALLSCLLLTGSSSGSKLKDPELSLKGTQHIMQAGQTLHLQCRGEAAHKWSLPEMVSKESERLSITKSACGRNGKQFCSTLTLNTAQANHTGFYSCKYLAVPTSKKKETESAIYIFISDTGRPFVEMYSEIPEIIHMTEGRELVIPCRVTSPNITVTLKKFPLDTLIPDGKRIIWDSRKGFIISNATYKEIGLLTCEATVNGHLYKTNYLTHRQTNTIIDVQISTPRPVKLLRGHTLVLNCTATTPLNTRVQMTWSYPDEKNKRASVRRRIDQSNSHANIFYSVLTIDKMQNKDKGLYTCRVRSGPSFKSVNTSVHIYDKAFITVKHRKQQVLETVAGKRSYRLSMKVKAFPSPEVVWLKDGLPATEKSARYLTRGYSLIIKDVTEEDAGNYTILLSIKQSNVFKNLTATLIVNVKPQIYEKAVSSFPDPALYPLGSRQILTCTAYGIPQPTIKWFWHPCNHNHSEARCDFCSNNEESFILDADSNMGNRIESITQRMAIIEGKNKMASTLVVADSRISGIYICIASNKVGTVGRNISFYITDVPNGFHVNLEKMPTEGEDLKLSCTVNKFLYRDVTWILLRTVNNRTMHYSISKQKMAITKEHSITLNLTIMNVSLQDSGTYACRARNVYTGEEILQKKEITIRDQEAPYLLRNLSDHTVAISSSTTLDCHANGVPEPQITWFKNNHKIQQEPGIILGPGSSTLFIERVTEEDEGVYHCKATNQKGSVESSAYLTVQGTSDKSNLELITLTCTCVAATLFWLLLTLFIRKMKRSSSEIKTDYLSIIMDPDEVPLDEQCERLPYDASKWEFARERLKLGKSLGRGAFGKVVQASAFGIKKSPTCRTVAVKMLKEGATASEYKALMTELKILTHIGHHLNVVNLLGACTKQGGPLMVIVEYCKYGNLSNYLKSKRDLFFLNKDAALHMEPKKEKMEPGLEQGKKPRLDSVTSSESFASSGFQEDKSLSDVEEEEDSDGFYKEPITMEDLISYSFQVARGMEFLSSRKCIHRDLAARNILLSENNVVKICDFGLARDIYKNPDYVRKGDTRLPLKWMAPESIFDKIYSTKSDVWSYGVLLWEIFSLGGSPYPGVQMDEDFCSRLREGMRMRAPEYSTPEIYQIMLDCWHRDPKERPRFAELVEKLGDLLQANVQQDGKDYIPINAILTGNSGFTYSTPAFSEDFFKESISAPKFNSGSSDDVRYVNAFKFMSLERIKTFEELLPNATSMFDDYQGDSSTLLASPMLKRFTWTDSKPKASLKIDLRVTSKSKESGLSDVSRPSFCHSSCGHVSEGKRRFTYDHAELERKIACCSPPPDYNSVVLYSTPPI

[3] = target: Mitogen-activated protein kinase 11 (Homo sapiens) (UniProt Q15759); experiment: Inhibition of MAPK11 (unknown origin) at 50 nM by Z'LYTE screening method relative to control
[4] = target: Mitogen-activated protein kinase 8 (Homo sapiens) (UniProt P45983); experiment: Inhibition of MAPK8 (unknown origin) at 50 nM by Z'LYTE screening method relative to control
[5] = target: Serine/threonine-protein kinase PAK 1 (Homo sapiens) (UniProt Q13153); experiment: Inhibition of PAK1 (unknown origin) at 50 nM by Z'LYTE screening method relative to control
Sequence of Serine/threonine-protein kinase PAK 1 (Homo sapiens) (Q13153 whole entry): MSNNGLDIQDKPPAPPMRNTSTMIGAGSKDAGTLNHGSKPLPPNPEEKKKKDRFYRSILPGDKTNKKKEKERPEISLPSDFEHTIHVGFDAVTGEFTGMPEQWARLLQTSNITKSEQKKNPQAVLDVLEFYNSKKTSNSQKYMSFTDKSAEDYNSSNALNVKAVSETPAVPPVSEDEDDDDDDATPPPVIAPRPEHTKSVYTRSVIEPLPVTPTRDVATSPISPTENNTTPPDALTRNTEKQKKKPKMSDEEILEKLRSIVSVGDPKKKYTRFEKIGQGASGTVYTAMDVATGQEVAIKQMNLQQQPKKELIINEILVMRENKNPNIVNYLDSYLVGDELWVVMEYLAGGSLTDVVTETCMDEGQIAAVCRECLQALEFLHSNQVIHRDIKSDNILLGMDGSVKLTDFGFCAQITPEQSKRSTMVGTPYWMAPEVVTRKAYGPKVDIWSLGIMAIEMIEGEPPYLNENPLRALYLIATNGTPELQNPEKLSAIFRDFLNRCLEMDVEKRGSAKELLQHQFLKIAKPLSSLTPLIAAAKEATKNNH

[6] = target: Protein kinase C delta type (Homo sapiens) (UniProt Q05655); experiment: Inhibition of PKCdelta (unknown origin) at 50 nM by Z'LYTE screening method relative to control
Sequence of Protein kinase C delta type (Homo sapiens) (Q05655 whole entry, looked up): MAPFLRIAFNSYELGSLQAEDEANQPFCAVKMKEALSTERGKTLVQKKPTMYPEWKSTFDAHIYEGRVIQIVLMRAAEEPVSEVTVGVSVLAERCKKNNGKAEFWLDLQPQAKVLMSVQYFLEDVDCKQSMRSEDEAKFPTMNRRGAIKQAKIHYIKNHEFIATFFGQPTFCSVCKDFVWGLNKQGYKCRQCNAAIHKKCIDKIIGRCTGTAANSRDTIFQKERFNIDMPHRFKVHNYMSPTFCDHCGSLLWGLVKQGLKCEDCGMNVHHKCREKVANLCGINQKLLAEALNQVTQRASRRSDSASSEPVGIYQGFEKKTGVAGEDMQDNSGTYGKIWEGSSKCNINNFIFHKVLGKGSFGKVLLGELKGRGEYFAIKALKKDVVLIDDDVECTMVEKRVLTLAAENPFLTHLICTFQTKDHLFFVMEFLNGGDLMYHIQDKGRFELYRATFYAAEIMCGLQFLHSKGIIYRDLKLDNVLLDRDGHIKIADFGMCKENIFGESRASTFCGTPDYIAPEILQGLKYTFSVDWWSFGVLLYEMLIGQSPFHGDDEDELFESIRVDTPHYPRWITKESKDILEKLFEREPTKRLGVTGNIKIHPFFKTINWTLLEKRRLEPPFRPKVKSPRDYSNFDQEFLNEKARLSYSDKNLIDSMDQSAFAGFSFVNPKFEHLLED

[7] = target: T1, Protein kinase C epsilon type (Homo sapiens) (UniProt Q02156); experiment: Inhibition of PKCepsilon (unknown origin) at 50 nM by Z'LYTE screening method relative to control
T1 sequence (whole entry): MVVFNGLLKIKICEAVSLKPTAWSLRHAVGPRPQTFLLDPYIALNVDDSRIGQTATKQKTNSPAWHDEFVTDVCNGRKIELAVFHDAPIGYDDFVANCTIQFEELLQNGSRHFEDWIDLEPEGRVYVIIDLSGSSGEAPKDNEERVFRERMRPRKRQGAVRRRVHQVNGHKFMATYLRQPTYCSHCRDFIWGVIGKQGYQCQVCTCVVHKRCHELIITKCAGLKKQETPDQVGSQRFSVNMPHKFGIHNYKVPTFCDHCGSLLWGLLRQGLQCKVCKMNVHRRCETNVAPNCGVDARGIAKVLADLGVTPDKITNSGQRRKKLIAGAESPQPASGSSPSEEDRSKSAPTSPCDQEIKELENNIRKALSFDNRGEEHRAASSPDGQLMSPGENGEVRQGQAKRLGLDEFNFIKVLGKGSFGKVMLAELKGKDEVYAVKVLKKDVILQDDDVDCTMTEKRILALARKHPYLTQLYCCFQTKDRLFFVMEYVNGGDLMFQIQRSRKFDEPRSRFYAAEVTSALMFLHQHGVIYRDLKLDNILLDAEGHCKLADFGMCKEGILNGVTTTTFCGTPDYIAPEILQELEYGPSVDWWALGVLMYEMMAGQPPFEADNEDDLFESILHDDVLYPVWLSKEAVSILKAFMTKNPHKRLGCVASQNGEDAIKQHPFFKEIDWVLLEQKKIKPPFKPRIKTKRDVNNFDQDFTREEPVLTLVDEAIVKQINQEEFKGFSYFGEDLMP

[8] = target: T2, Protein kinase C zeta type (Homo sapiens) (UniProt Q05513); experiment: Inhibition of PKCzeta (unknown origin) at 50 nM by Z'LYTE screening method relative to control
T2 sequence (whole entry): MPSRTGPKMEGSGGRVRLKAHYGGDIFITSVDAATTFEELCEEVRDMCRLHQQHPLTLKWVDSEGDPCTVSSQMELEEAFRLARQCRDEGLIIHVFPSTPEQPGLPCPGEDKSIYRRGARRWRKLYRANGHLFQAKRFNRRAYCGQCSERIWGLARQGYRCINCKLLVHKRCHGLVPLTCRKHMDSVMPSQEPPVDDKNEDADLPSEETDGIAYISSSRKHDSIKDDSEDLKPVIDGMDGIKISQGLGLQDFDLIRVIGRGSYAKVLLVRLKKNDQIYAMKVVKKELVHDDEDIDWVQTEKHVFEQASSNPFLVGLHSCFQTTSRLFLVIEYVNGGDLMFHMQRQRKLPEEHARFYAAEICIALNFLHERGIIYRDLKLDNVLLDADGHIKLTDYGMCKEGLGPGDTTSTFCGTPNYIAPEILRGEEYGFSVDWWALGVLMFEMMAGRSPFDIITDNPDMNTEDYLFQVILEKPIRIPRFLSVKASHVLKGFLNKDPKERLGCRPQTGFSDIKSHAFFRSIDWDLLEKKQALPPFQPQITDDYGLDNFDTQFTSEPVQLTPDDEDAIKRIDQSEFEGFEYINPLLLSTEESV

[9] = target: Protein kinase C gamma type (Homo sapiens) (UniProt P05129); experiment: Inhibition of PKC gamma (unknown origin) at 50 nM by Z'LYTE screening method relative to control
[10] = target: Proto-oncogene tyrosine-protein kinase Src (Homo sapiens) (UniProt P12931); experiment: Inhibition of SRC (unknown origin) at 50 nM by Z'LYTE screening method relative to control
[11] = target: Tyrosine-protein kinase SYK (Homo sapiens) (UniProt P43405); experiment: Inhibition of SYK (unknown origin) at 50 nM by Z'LYTE screening method relative to control
[12] = target: Tyrosine-protein kinase Yes (Homo sapiens) (UniProt P07947); experiment: Inhibition of YES1 (unknown origin) at 50 nM by Z'LYTE screening method relative to control
[13] = target: Hepatocyte growth factor receptor (Homo sapiens) (UniProt P08581); experiment: Inhibition of cMet (unknown origin) at 50 nM by Z'LYTE screening method relative to control
Sequence of Hepatocyte growth factor receptor (Homo sapiens) (P08581 whole entry): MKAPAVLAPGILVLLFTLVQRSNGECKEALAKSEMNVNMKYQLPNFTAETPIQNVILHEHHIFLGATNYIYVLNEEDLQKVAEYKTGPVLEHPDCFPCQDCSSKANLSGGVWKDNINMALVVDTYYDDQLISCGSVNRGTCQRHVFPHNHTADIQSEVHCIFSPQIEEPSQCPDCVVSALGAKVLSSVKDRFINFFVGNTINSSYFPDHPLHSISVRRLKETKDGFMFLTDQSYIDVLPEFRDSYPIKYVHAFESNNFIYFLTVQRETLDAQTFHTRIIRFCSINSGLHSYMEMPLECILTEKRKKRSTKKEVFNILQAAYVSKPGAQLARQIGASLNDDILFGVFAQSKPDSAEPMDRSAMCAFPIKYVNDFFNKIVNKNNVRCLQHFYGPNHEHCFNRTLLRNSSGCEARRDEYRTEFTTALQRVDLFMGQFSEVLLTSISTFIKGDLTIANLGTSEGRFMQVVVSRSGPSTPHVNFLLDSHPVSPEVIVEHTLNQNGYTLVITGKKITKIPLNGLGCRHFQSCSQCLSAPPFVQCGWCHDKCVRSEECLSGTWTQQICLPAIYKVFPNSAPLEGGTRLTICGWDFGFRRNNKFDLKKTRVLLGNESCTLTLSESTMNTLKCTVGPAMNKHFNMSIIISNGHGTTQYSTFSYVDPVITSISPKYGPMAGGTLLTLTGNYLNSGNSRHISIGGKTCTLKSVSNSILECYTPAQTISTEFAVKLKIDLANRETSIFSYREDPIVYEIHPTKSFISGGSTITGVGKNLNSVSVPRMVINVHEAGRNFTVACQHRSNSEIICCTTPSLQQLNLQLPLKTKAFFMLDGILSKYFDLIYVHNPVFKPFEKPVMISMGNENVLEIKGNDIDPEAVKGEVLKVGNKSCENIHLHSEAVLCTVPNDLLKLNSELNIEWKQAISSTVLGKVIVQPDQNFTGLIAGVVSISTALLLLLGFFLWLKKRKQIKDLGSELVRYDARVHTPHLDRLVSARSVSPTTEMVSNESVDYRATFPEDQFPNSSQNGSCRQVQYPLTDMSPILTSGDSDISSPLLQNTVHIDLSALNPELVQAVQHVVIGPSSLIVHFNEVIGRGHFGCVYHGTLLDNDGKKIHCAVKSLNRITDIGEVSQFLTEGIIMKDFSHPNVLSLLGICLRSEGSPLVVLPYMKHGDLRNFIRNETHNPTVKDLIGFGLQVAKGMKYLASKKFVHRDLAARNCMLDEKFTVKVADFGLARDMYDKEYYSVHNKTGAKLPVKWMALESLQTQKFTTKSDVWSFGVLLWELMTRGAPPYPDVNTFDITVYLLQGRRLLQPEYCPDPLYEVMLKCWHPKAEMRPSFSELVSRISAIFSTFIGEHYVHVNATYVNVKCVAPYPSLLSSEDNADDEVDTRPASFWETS

[14] = target: PI3-kinase p110-alpha/p85-alpha (Homo sapiens) (UniProt P27986+P42336); experiment: Inhibition of p110alpha/p85alpha (unknown origin) at 50 nM by Z'LYTE screening method relative to control; format: protein-complex assay
[15] = target: Focal adhesion kinase 1 (Homo sapiens) (UniProt Q05397); experiment: Inhibition of FAK (unknown origin) at 50 nM by Z'LYTE screening method relative to control
Sequence of Focal adhesion kinase 1 (Homo sapiens) (Q05397 2-1052 limits assumed): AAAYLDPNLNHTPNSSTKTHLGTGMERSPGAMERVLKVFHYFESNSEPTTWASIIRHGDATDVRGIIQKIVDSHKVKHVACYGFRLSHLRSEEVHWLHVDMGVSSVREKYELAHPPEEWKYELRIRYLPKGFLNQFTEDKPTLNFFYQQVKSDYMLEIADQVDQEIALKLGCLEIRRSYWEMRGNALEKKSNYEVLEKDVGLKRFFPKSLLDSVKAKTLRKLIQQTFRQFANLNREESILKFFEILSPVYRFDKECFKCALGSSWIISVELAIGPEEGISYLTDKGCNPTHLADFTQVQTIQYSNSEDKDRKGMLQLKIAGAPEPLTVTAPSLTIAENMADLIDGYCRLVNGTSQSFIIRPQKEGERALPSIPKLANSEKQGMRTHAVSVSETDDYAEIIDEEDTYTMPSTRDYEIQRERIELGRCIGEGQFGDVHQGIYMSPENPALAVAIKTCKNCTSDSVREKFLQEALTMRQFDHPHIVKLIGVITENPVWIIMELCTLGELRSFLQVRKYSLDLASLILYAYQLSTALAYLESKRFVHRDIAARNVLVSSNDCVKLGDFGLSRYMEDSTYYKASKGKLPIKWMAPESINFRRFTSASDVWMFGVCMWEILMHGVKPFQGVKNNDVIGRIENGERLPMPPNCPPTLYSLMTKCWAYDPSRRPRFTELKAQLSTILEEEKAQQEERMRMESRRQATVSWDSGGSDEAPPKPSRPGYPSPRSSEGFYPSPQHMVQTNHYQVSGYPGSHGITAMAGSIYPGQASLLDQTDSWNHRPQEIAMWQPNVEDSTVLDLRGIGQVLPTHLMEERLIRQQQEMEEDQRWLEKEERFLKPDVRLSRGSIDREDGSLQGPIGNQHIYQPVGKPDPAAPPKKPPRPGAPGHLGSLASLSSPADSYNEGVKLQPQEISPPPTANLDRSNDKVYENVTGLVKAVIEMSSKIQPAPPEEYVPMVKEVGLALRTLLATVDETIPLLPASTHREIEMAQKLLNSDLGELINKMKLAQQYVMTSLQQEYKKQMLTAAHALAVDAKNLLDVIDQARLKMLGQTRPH

[16] = target: Proto-oncogene tyrosine-protein kinase receptor Ret (Homo sapiens) (UniProt P07949); experiment: Inhibition of RET (unknown origin) at 50 nM by Z'LYTE screening method relative to control
[17] = target: Ribosomal protein S6 kinase beta-1 (Homo sapiens) (UniProt P23443); experiment: Inhibition of p70S6K (unknown origin) at 50 nM by Z'LYTE screening method relative to control

| inhibition [1] [%] | inhibition [2] [%] | inhibition [3] [%] | inhibition [4] [%] | inhibition [5] [%] | inhibition [6] [%] | inhibition [7] [%] | inhibition [8] [%] | inhibition [9] [%] | inhibition [10] [%] | inhibition [11] [%] | inhibition [12] [%] | inhibition [13] [%] | inhibition [14] [%] | inhibition [15] [%] | inhibition [16] [%] | inhibition [17] [%] | SMILES |
| --- | --- | --- | --- | --- | --- | --- | --- | --- | --- | --- | --- | --- | --- | --- | --- | --- | --- |
| 1 | 1 | 0 | 0 | 0 | 0 | 0 | 6 | 2 | 0 | 1 | 1 | 0 | 0 | 0 | 2 | 1 | O=C1c2ccccc2CN1c1nc(NC2CCCC2)c2nc[nH]c2n1 |
| 5 | 2 | 3 | 0 | 2 | 0 | 4 | 7 | 1 | 0 | 2 | 9 | 2 | 0 | 0 | 2 | 1 | CCN(CC)CCCC(C)Nc1nc(N2Cc3ccccc3C2=O)nc2[nH]cnc12 (configuration not stated) |
| 1 | 1 | 2 | 0 | 0 | 0 | 0 | 4 | 0 | 1 | 0 | 8 | 0 | 0 | 0 | 4 | 0 | O=c1c2ccccc2[se]n1-c1nc(Nc2ccccc2)c2nc[nH]c2n1 |
| 7 | 2 | 3 | 0 | 0 | 0 | 6 | 9 | 45 | 3 | 5 | 38 | 0 | 0 | 0 | 13 | 1 | O=c1c2ccccc2[se]n1-c1nc(NC2CCCCC2)c2nc[nH]c2n1 |

More lines, now with the values behind:

| SMILES | inhibition [1] [%] | inhibition [2] [%] | inhibition [3] [%] | inhibition [4] [%] | inhibition [5] [%] | inhibition [6] [%] | inhibition [7] [%] | inhibition [8] [%] | inhibition [9] [%] | inhibition [10] [%] | inhibition [11] [%] | inhibition [12] [%] | inhibition [13] [%] | inhibition [14] [%] | inhibition [15] [%] | inhibition [16] [%] | inhibition [17] [%] |
| --- | --- | --- | --- | --- | --- | --- | --- | --- | --- | --- | --- | --- | --- | --- | --- | --- | --- |
| CCCNc1nc(-n2[se]c3ccccc3c2=O)nc2[nH]cnc12 | 2 | 0 | 4 | 0 | 1 | 0 | 6 | 3 | 1 | 2 | 2 | 3 | 1 | 0 | 0 | 0 | 0 |
| O=C1c2ccccc2CN1c1nc(N[C@H]2CC[Se]C2)c2nc[nH]c2n1 | 9 | 1 | 3 | 0 | 0 | 0 | 2 | 6 | 3 | 0 | 1 | 12 | 0 | 0 | 0 | 2 | 2 |
| O=c1c2ccccc2[se]n1-c1nc(N[C@@H]2C[C@H]3CC[C@@H]2C3)c2nc[nH]c2n1 | 4 | 1 | 4 | 0 | 1 | 0 | 2 | 7 | 0 | 2 | 3 | 9 | 1 | 0 | 0 | 6 | 2 |
| O=c1c2ccccc2[se]n1-c1nc(N[C@H]2CC[Se]C2)c2nc[nH]c2n1 | 0 | 0 | 9 | 0 | 0 | 0 | 5 | 12 | 47 | 0 | 0 | 10 | 0 | 0 | 0 | 7 | 3 |
| O=C1c2ccccc2CN1c1nc(NC2CCCCC2)c2nc[nH]c2n1 | 4 | 0 | 1 | 0 | 0 | 0 | 4 | 9 | 0 | 5 | 3 | 5 | 0 | 0 | 0 | 10 | 1 |
| O=c1c2ccccc2[se]n1-c1nc(N[C@H]2CCOC2)c2nc[nH]c2n1 | 0 | 0 | 3 | 0 | 0 | 0 | 0 | 2 | 25 | 3 | 2 | 6 | 0 | 0 | 0 | 7 | 6 |
| C[C@@H]1[C@H]2C[C@@H](C[C@H]1Nc1nc(-n3[se]c4ccccc4c3=O)nc3[nH]cnc13)C2(C)C | 6 | 1 | 4 | 0 | 1 | 0 | 2 | 7 | 1 | 0 | 1 | 7 | 1 | 0 | 0 | 2 | 2 |
